Measurements published in publication PMC11116414, “Impact of secretin receptor homo-dimerization on natural ligand binding” (Nature Communications, 2024).
No end group written: not given here.

Tested on: cysteine-containing SecR(G264A,I268A) constructs
Experiment: Cysteine trapping with SecR(G264A,I268A) cysteine constructs, intact COS-1 cells
Type: binding, human
Settings: for Intraloop labeling / Overall labeling: mean ± S.E.M.; for cysteine trapping in ECL3, in words: WT (earlier work) and non-dimerizing SecR
Experimental: In short, 15 µg of each peptide were incubated with 1 mCi of Na^125I for 15 s in borate buffer (pH 9.0) using solid-state N-chlorobenzene sulfonamide (iodination beads), and radioactive peptide products were separated and purified using reversed-phase HPLC, to yield a mono-iodinated peak with a specific radioactivity of 2000 Ci/mmol.
Modified secretin receptor constructs were prepared by mutagenesis of human SecR(G264A,I268A) by introducing cysteine residues to replace each natural residue in the N-terminal stalk region, (extracellular loop 1) ECL1, ECL2, and ECL3 regions of the receptor[21]. Mutagenesis was performed using the QuikChange site-directed mutagenesis kit from Stratagene (La Jolla, CA), with the products verified by direct DNA sequencing.
Cysteine trapping is a technique in which cysteine residues incorporated into distinct positions within a peptide ligand and within its receptor are allowed to form disulfide bonds when two free cysteines are in proximity to each other with necessary distance and geometry. As noted above, this was performed with secretin peptides incorporating cysteines in positions 2, 5, 6 and 7[20],[21], and with a series of SecR mutants incorporating cysteines in all extracellular domains (75 distinct constructs in a TM4 mutant non-dimerizing SecR background). COS-1 cells were grown to approximate 85% confluence in 24-well tissue culture plates, and transfected with cysteine mutant receptor constructs using the PEI method. Assays were started by washing the cells with DMEM containing 5% Fetal Clone II before being incubated with 200 μl radiolabeled cysteine-containing probes (approximately 100,000 cpm per well) for 1.5 h at room temperature. The assays were terminated by washing the cells with ice-cold PBS, pH 7.4, and mixing with 60 µl SDS Laemmli sample buffer not containing dithiothreitol (DTT). Lysates were run on 10% SDS-polyacrylamide gels. Gels were then dried, and bands of interest were visualized by autoradiography, and specific bands were identified, and intensities quantified using ImageJ. Sites having labeling above background were determined using one-way ANOVA with Dunnett’s post-test, with P < 0.001 considered to be significant. The apparent molecular weights of the receptor bands were determined by interpolation with the mobility of the appropriate ProSieve protein markers.

[1] = A292C, ECL2, n = 3-5, Cys5 significant (P < 0.0001)
[2] = F279C, ECL2, % of highest-labeled residue across all constructs, n = 4 (Cys2), 5 (Cys5, Cys6), 3 (Cys7)
[3] = L374C, ECL3, n = 3-5, Cys5, Cys6, Cys7 significant (P < 0.001)
[4] = M366C, ECL3, n = 3-5, Cys5 significant (P < 0.0001)
[5] = W296C, ECL2, n = 3-5, Cys6 significant (P = 0.0003)

In the case of “Cys^6-[Tyr^10]secretin(1-27) (HSDGTCTSEYSRLREGARLQRLLQGLV; not fully specified; ends and bridges not checked; also: radioiodinated; UniProt P09683 28-54, looked up, variant F6C L10Y) [Cys^6-Sec, cysteine-containing secretin agonist probe, radioiodinated for cysteine trapping]”, the Intraloop labeling (A292C, ECL2, n = 3-5) is reported as 29.1 ±17.0 percentage, the Overall labeling [1] is reported as 24.9±17.2 percentage and the Intraloop labeling (D282C, ECL2, n = 3-5) is reported as < 1 percentage. For the same substance, the Overall labeling (D282C, ECL2, n = 3-5) was < 1 percentage, the Intraloop labeling (D364C, ECL3, n = 3-5) was 17.1±8.2 percentage and the Overall labeling (D364C, ECL3, n = 3-5, Cys5 significant (P < 0.0001)) was 16.2±8.4 percentage. It also gave an Intraloop labeling (E367C, ECL3, n = 3-5) of 40.8±17.2 percentage, an Overall labeling (E367C, ECL3, n = 3-5) of 35.5±14.9 percentage and an Intraloop labeling (E373C, ECL3, n = 3-5) of 19.9±17.3 percentage. For the same substance, the Overall labeling (E373C, ECL3, n = 3-5) was 13.9±11.4 percentage, the Overall labeling [2] was < 1 percentage and the Intraloop labeling (F358C, ECL3, n = 3-5) was 16.4±12.8 percentage. For the same substance, the Overall labeling (F358C, ECL3, n = 3-5) was 10.2±6.9 percentage, the Intraloop labeling (F371C, ECL3, n = 3-5) was 11.4±11.0 percentage and the Intraloop labeling (F372C, ECL3, n = 3-5) was 19.0±15.7 percentage. The Overall labeling (F372C, ECL3, n = 3-5) was 13.6±10.3 percentage, the Overall labeling (G284C, ECL2, n = 3-5) was < 1 percentage and the Intraloop labeling (I294C, ECL2, n = 3-5) was 10.5±9.5 percentage. For the same substance, the Overall labeling (I294C, ECL2, n = 3-5) was 10.3±9.5 percentage, the Intraloop labeling (I297C, ECL2, n = 3-5) was 30.1±18.4 percentage and the Intraloop labeling (L374C, ECL3, n = 3-5) was 94.8±5.2 percentage. For the same substance, the Overall labeling [3] was 78.8±9.2 percentage, the Intraloop labeling (M366C, ECL3, n = 3-5) was 56.2±16.4 percentage and the Overall labeling [4] was 48.0±17.7 percentage. For the same substance, the Intraloop labeling (N289C, ECL2, n = 3-5) was 15.8±14.5 percentage, the Overall labeling (N289C, ECL2, n = 3-5) was 15.7±14.5 percentage and the Intraloop labeling (N291C, ECL2, n = 3-5) was < 1 percentage. For the same substance, the Overall labeling (N291C, ECL2, n = 3-5) was < 1 percentage, the Intraloop labeling (Q369C, ECL3, n = 3-5) was 13.0±12.7 percentage and the Intraloop labeling (V283C, ECL2, n = 3-5) was 15.8±13.9 percentage. It also gave an Overall labeling (V283C, ECL2, n = 3-5) of 15.5±13.9 percentage, an Intraloop labeling (W286C, ECL2, n = 3-5) of 24.4±19.3 percentage and an Overall labeling (W286C, ECL2, n = 3-5) of 13.4±8.9 percentage. The Intraloop labeling (W295C, ECL2, n = 3-5) was 34.2±0.1 percentage, the Overall labeling (W295C, ECL2, n = 3-5, Cys2, Cys5, Cys7 significant (P < 0.0001)) was 34.1±17.2 percentage and the Intraloop labeling (W296C, ECL2, n = 3-5) was 80.2±19.8 percentage. For the same substance, the Overall labeling [5] was 68.0±20.5 percentage and the “cysteine trapping in ECL3, in words” value was “labeled ECL3 residues”.
With “Cys^7-[Tyr^10]secretin(1-27) (HSDGTFCSEYSRLREGARLQRLLQGLV; not fully specified; ends and bridges not checked; also: radioiodinated; UniProt P09683 28-54, looked up, variant T7C L10Y) [Cys^7-Sec, cysteine-containing secretin agonist probe, radioiodinated for cysteine trapping]” the Intraloop labeling (A290C, ECL2, n = 3-5) was < 1 percentage, the Overall labeling (A290C, ECL2, n = 3-5) was < 1 percentage and the Intraloop labeling (A292C, ECL2, n = 3-5) was < 1 percentage. The Overall labeling [1] was < 1 percentage, the Intraloop labeling (A359C, ECL3, n = 3-5) was 85.3±8.6 percentage and the Overall labeling (A359C, ECL3, n = 3-5, Cys7 significant (P = 0.0004)) was 85.3±8.6 percentage. The Intraloop labeling (A365C, ECL3, n = 3-5) was 66.4±17.1 percentage, the Overall labeling (A365C, ECL3, n = 3-5, Cys5 significant (P < 0.0001)) was 66.4±17.1 percentage and the Intraloop labeling (D282C, ECL2, n = 3-5) was < 1 percentage. The Overall labeling (D282C, ECL2, n = 3-5) was < 1 percentage, the Intraloop labeling (D287C, ECL2, n = 3-5) was 15.7±15.6 percentage and the Intraloop labeling (E363C, ECL3, n = 3-5) was < 1 percentage. The Overall labeling (E363C, ECL3, n = 3-5) was < 1 percentage, the Intraloop labeling (E367C, ECL3, n = 3-5) was < 1 percentage and the Overall labeling (E367C, ECL3, n = 3-5) was < 1 percentage. For the same substance, the Intraloop labeling (E373C, ECL3, n = 3-5) was < 1 percentage, the Overall labeling (E373C, ECL3, n = 3-5) was < 1 percentage and the Intraloop labeling (F279C, ECL2, % of highest labeling within loop, n = 4 (Cys2), 5 (Cys5, Cys6), 3 (Cys7)) was < 1 percentage. The Overall labeling [2] was < 1 percentage, the Intraloop labeling (F358C, ECL3, n = 3-5) was 21.6±20.7 percentage and the Overall labeling (F358C, ECL3, n = 3-5) was 21.6±20.7 percentage. For the same substance, the Intraloop labeling (F360C, ECL3, n = 3-5) was 23.9±23.4 percentage, the Overall labeling (F360C, ECL3, n = 3-5) was 23.9±23.4 percentage and the Intraloop labeling (F372C, ECL3, n = 3-5) was 24.8±24.7 percentage. For the same substance, the Overall labeling (F372C, ECL3, n = 3-5) was 24.8±24.7 percentage, the Intraloop labeling (G284C, ECL2, n = 3-5) was < 1 percentage and the Overall labeling (G284C, ECL2, n = 3-5) was < 1 percentage. The Intraloop labeling (I288C, ECL2, n = 3-5) was 82.9±8.6 percentage, the Overall labeling (I288C, ECL2, n = 3-5, Cys5 and Cys7 significant (P < 0.0001)) was 71.4±10.6 percentage and the Intraloop labeling (I294C, ECL2, n = 3-5) was < 1 percentage. For the same substance, the Overall labeling (I294C, ECL2, n = 3-5) was < 1 percentage, the Intraloop labeling (I297C, ECL2, n = 3-5) was < 1 percentage and the Overall labeling (I297C, ECL2, n = 3-5) was < 1 percentage. For the same substance, the Intraloop labeling (I368C, ECL3, n = 3-5) was < 1 percentage, the Overall labeling (I368C, ECL3, n = 3-5) was < 1 percentage and the Intraloop labeling (L280C, ECL2, n = 3-5) was < 1 percentage. The Overall labeling (L280C, ECL2, n = 3-5) was < 1 percentage, the Intraloop labeling (L374C, ECL3, n = 3-5) was 88.6±11.4 percentage and the Overall labeling [3] was 88.6±11.4 percentage. For the same substance, the Intraloop labeling (M366C, ECL3, n = 3-5) was 55.6±22.3 percentage, the Overall labeling [4] was 55.6±22.3 percentage and the Intraloop labeling (N291C, ECL2, n = 3-5) was < 1 percentage. For the same substance, the Overall labeling (N291C, ECL2, n = 3-5) was < 1 percentage, the Intraloop labeling (P362C, ECL3, n = 3-5) was < 1 percentage and the Overall labeling (P362C, ECL3, n = 3-5) was < 1 percentage. The Intraloop labeling (Q369C, ECL3, n = 3-5) was < 1 percentage, the Overall labeling (Q369C, ECL3, n = 3-5) was < 1 percentage and the Intraloop labeling (S293C, ECL2, n = 3-5) was < 1 percentage. For the same substance, the Overall labeling (S293C, ECL2, n = 3-5) was < 1 percentage, the Intraloop labeling (S361C, ECL3, n = 3-5) was < 1 percentage and the Overall labeling (S361C, ECL3, n = 3-5) was < 1 percentage. For the same substance, the Intraloop labeling (V283C, ECL2, n = 3-5) was < 1 percentage, the Overall labeling (V283C, ECL2, n = 3-5) was < 1 percentage and the Overall labeling (W286C, ECL2, n = 3-5) was < 1 percentage. The Intraloop labeling (W295C, ECL2, n = 3-5) was 92.5±7.5 percentage, the Intraloop labeling (W296C, ECL2, n = 3-5) was < 1 percentage and the Overall labeling [5] was < 1 percentage. For the same substance, the “cysteine trapping in ECL3, in words” value was “labeled ECL3 residues”.
